Target: T1, human FGFR4 (Homo sapiens, UniProt P22455)
T1 construct: human FGFR4 cytoplasmic domain (460-802); GST (N); purchased Carna Biosciences 08-136
Assay: FGFR4 enzymatic assay (HTRF KinEASE-TK)
Type: biochemical
Details: wild-type human FGFR4 cytoplasmic domain (460-802), GST-tag; 60 min preincubation at 25° C.; ATP 200 μM; read-out: Potency (IC50), FGFR4 enzymatic assay
Procedure: The ability of compounds to inhibit human FGFR4 tyrosine kinase activities was determined using a commercially available HTRF® KinEASE™-TK kit (CISBIO, Cat #62TK0PEC) according to the manufacturer's protocol. Wild-type human FGFR4 cytoplasmic domain (460-802) with N-terminal GST-tag was purchased from Carna Biosciences (Carna, Cat #08-136) and used in the kinase enzymatic assay. This assay, run in a 384-well plate format, is a generic method for measuring tyrosine kinase activities using one substrate and a universal detection system. It involves two steps: (1) Enzymatic step: the biotin labeled TK Substrate is incubated with the kinase and then ATP is added to start the enzymatic reaction; during this step, FGFR4 will phosphorylate the TK Substrate-biotin. (2) Detection step: The TK-Antibody labeled with Eu^3+-Cryptate can recognize the phosphorylated TK Substrate-biotin. When the streptavidin-XL665 conjugate binds the biotin, a FRET signal will be detected. Briefly, human FGFR4 (0.25 μg/ml) in the enzymatic buffer solutions (250 mM HEPES, pH7.0, 0.1% NaN3, 0.05% BSA, 0.5 mM Orthovanadate) were mixed with various concentrations of the test compound (dissolved in 100% DMSO). These solutions were incubated for 60 min at 25° C., and subsequently a mixture of substrate peptide and ATP was added with the final peptide and ATP concentrations at 0.3 μM and 200 μM respectively. The final reaction mixture of enzyme-substrate-ATP-compound was incubated for 40 min at 37° C. Meanwhile the detection mixture containing the TK-antibody and Streptavidin-XL665 diluted in the detection buffer (50 mM HEPES, pH7.0, with additives) was prepared, and added to the reaction mixture at final concentrations of 25 nM and 18.5 nM respectively. After incubation for 60 min at 25° C., the FRET signal of the final solution was measured at 665 nm and 612 nm emissions on a TECAN Spark 10M instrument (TECAN). The percent (%) inhibition at each concentration of a compound was calculated relative to the FRET signal in the Max and Min control wells contained within each assay plate. The Max control wells contained enzyme and substrate as 0% inhibition, and the Min control wells only contained substrate without enzyme as 100% inhibition. The concentrations and percent inhibition values for a test compound are plotted and the concentration of the compound required to achieve 50% inhibition (IC50) was determined with a four-parameter logistic dose response equation. Dose-response curves were generated using Prism (GraphPad Software, La Jolla, CA, US) to calculate IC50 values for each compound tested.

T1 sequence (P22455 460-802): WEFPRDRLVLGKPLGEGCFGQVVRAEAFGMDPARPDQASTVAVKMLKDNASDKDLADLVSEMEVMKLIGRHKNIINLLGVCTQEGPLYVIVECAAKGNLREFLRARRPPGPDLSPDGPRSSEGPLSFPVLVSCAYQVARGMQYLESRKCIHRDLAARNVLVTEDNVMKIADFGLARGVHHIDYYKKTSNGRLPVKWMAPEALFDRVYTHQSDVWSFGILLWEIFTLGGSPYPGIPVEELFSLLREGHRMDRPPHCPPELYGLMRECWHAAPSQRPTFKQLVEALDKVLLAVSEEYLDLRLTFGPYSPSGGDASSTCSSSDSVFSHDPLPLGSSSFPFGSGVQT

Structure (SMILES) | IC50 [nM]
C=C(C)C(=O)Nc1cnn(C)c1-c1n[nH]c2c1CCC(c1c(Cl)c(OC)cc(OC)c1Cl)C2 (single isomer, unassigned) [Compound S2-P1, N-(5-(6-(2,6-dichloro-3,5-Dimethoxyphenyl)-4,5,6,7-tetrahydro-1H-indazol-3-yl)-1-methyl-1H-pyrazol-4-yl) Methacrylamide] | > 100
C=C(C)C(=O)Nc1cnn(C)c1-c1n[nH]c2c1CCC(c1c(Cl)c(OC)cc(OC)c1Cl)C2 (single isomer, unassigned) [Compound S2-P2, N-(5-(6-(2,6-dichloro-3,5-Dimethoxyphenyl)-4,5,6,7-tetrahydro-1H-indazol-3-yl)-1-methyl-1H-pyrazol-4-yl) Methacrylamide] | > 100
C=CC(=O)NC1CCOCC1c1n[nH]c2c1CC[C@H](c1c(Cl)c(OC)cc(OC)c1Cl)C2 (single isomer, unassigned) [Compound S7-P1] | > 100
C=CC(=O)NC1CCOCC1c1n[nH]c2c1CC[C@H](c1c(Cl)c(OC)cc(OC)c1Cl)C2 (single isomer, unassigned) [Compound S7-P2] | > 100
C=CC(=O)Nc1cnn(CC(F)(F)F)c1-c1n[nH]c2c1CCC(c1c(F)c(OC)cc(OC)c1F)C2 (single isomer, unassigned) [Compound S18-P1, N-(5-(6-(2,6-difluoro-3,5-dimethoxyphenyl)-4,5,6,7-tetrahydro-1H-indazol-3-yl)-1-(2,2,2-trifluoroethyl)-1H-pyrazol-4-yl)acrylamide] | > 100
C=CC(=O)Nc1cnn(CC(F)(F)F)c1-c1n[nH]c2c1CCC(c1c(F)c(OC)cc(OC)c1F)C2 (single isomer, unassigned) [Compound S18-P2, N-(5-(6-(2,6-difluoro-3,5-dimethoxyphenyl)-4,5,6,7-tetrahydro-1H-indazol-3-yl)-1-(2,2,2-trifluoroethyl)-1H-pyrazol-4-yl)acrylamide] | > 100
COc1cc(OC)c(F)c(C2CCc3c(-c4c(NC(C)=O)cnn4C)n[nH]c3C2)c1F (single isomer, unassigned) [Compound S19-P1, N-(5-(6-(2,6-difluoro-3,5-dimethoxyphenyl)-4,5,6,7-tetrahydro-1H-indazol-3-yl)-1-methyl-1H-pyrazol-4-yl)acetamide] | > 100
COc1cc(OC)c(F)c(C2CCc3c(-c4c(NC(C)=O)cnn4C)n[nH]c3C2)c1F (single isomer, unassigned) [Compound S19-P2, N-(5-(6-(2,6-difluoro-3,5-dimethoxyphenyl)-4,5,6,7-tetrahydro-1H-indazol-3-yl)-1-methyl-1H-pyrazol-4-yl)acetamide] | > 100
CCC(=O)Nc1cnn(C)c1-c1n[nH]c2c1CCC(c1c(F)c(OC)cc(OC)c1F)C2 (single isomer, unassigned) [Compound S20-P1, N-(5-(6-(2,6-difluoro-3,5-dimethoxyphenyl)-4,5,6,7-tetrahydro-1H-indazol-3-yl)-1-methyl-1H-pyrazol-4-yl)propionamide] | > 100
CCC(=O)Nc1cnn(C)c1-c1n[nH]c2c1CCC(c1c(F)c(OC)cc(OC)c1F)C2 (single isomer, unassigned) [Compound S20-P2, N-(5-(6-(2,6-difluoro-3,5-dimethoxyphenyl)-4,5,6,7-tetrahydro-1H-indazol-3-yl)-1-methyl-1H-pyrazol-4-yl)propionamide] | > 100
C=C(F)C(=O)Nc1cnn(C)c1-c1n[nH]c2c1CCC(c1c(F)c(OC)cc(OC)c1F)C2 (single isomer, unassigned) [Compound S21-P1, N-(5-(6-(2,6-difluoro-3,5-dimethoxyphenyl)-4,5,6,7-tetrahydro-1H-indazol-3-yl)-1-methyl-1H-pyrazol-4-yl)-2-fluoroacrylamide] | > 100
C=C(F)C(=O)Nc1cnn(C)c1-c1n[nH]c2c1CCC(c1c(F)c(OC)cc(OC)c1F)C2 (single isomer, unassigned) [Compound S21-P2, N-(5-(6-(2,6-difluoro-3,5-dimethoxyphenyl)-4,5,6,7-tetrahydro-1H-indazol-3-yl)-1-methyl-1H-pyrazol-4-yl)-2-fluoroacrylamide] | > 100
C=CC(=O)N[C@H]1COC[C@H]1c1n[nH]c2c1CC[C@@H](c1c(Cl)c(OC)cc(OC)c1Cl)C2 [Compound S10-P1, N-((3R,4R)-4-((R)-6-(2,6-dichloro-3,5-dimethoxyphenyl)-4,5,6,7-tetrahydro-1H-indazol-3-yl)tetrahydrofuran-3-yl)acrylamide] | > 100
C=CC(=O)N[C@@H]1COC[C@@H]1c1n[nH]c2c1CC[C@@H](c1c(Cl)c(OC)cc(OC)c1Cl)C2 [Compound S10-P2, N-((3S,4S)-4-((R)-6-(2,6-dichloro-3,5-dimethoxyphenyl)-4,5,6,7-tetrahydro-1H-indazol-3-yl)tetrahydrofuran-3-yl)acrylamide] | > 100
C=CC(=O)N[C@@H]1COC[C@@H]1c1n[nH]c2c1CC[C@H](c1c(Cl)c(OC)cc(OC)c1Cl)C2 [Compound S10-P3, N-((3S,4S)-4-((S)-6-(2,6-dichloro-3,5-dimethoxyphenyl)-4,5,6,7-tetrahydro-1H-indazol-3-yl)tetrahydrofuran-3-yl)acrylamide] | > 100
C=CC(=O)N[C@H]1COC[C@H]1c1n[nH]c2c1CC[C@H](c1c(Cl)c(OC)cc(OC)c1Cl)C2 [Compound S10-P4, N-((3R,4R)-4-((S)-6-(2,6-dichloro-3,5-dimethoxyphenyl)-4,5,6,7-tetrahydro-1H-indazol-3-yl)tetrahydrofuran-3-yl)acrylamide] | > 100
C=CC(=O)N[C@H]1COC[C@H]1c1n[nH]c2c1CC[C@H](c1c(F)c(OC)cc(OC)c1F)C2 [Compound S13-P1, N-((3R,4R)-4-((S)-6-(2,6-difluoro-3,5-dimethoxyphenyl)-4,5,6,7-tetrahydro-1H-indazol-3-yl)tetrahydrofuran-3-yl)acrylamide] | > 100
C=CC(=O)N[C@@H]1COC[C@@H]1c1n[nH]c2c1CC[C@H](c1c(F)c(OC)cc(OC)c1F)C2 [Compound S13-P2, N-((3S,4S)-4-((S)-6-(2,6-difluoro-3,5-dimethoxyphenyl)-4,5,6,7-tetrahydro-1H-indazol-3-yl)tetrahydrofuran-3-yl)acrylamide] | > 100
C=CC(=O)N[C@H]1COC[C@H]1c1n[nH]c2c1CC[C@H](c1cc(OC)cc(OC)c1F)C2 [Compound S13-P3, N-((3R,4R)-4-((S)-6-(2-fluoro-3,5-dimethoxyphenyl)-4,5,6,7-tetrahydro-1H-indazol-3-yl)tetrahydrofuran-3-yl)acrylamide] | > 100
C=CC(=O)N[C@@H]1COC[C@@H]1c1n[nH]c2c1CC[C@H](c1cc(OC)cc(OC)c1F)C2 [Compound S13-P4, N-((3S,4S)-4-((S)-6-(2-fluoro-3,5-dimethoxyphenyl)-4,5,6,7-tetrahydro-1H-indazol-3-yl)tetrahydrofuran-3-yl)acrylamide] | > 100
C=CC(=O)Nc1cnn(CC)c1-c1n[nH]c2c1CC[C@@H](c1cc(OC)cc(OC)c1F)C2 [Compound S14-P3, (R)—N-(1-ethyl-5-(6-(2-fluoro-3,5-dimethoxyphenyl)-4,5,6,7-tetrahydro-1H-indazol-3-yl)-1H-pyrazol-4-yl) acrylamide] | > 100
COC(=O)/C=C/C(=O)Nc1cnn(C)c1-c1n[nH]c2c1CC[C@H](c1c(F)c(OC)cc(OC)c1F)C2 [Compound S22, methyl (S,E)-4-((5-(6-(2,6-difluoro-3,5-dimethoxyphenyl)-4,5,6,7-tetrahydro-1H-indazol-3-yl)-1-methyl-1H-pyrazol-4-yl)amino)-4-oxobut-2-enoate] | > 100
COc1cc(OC)c(F)c([C@H]2CCc3c(-c4c(NC(=O)/C=C/C(=O)OC(C)C)cnn4C)n[nH]c3C2)c1F [Compound S23, isopropyl (S,E)-4-((5-(6-(2,6-difluoro-3,5-dimethoxyphenyl)-4,5,6,7-tetrahydro-1H-indazol-3-yl)-1-methyl-1H-pyrazol-4-yl)amino)-4-oxobut-2-enoate] | > 100
COc1cc(OC)c(F)c([C@H]2CCc3c(-c4c(NC(=O)C5CO5)cnn4C)n[nH]c3C2)c1F (stereo partly drawn) [Compound S24, N-(5-((S)-6-(2,6-difluoro-3,5-dimethoxyphenyl)-4,5,6,7-tetrahydro-1H-indazol-3-yl)-1-methyl-1H-pyrazol-4-yl)oxirane-2-carboxamide] | > 100

— US11976058B2, “Aromatic derivatives, preparation methods, and medical uses thereof” (Bioardis LLC, priority 2019, dated 2024)
